Measured values from ChEMBL document CHEMBL5465560, “Selectivity Literature for EUbOPEN Chemogenomic Library” (2024).
One block for each compound: values may come before it.

Columns and labels:
[1] = biological target: CDK8/Cyclin C (Homo sapiens) (UniProt P49336+P24863); assay: Selectivity interaction (NanoBRET assay in HEK293T cells) EUB0001631a CDK8; type: cell-based; conditions: HEK-293T, at 10 µM
[2] = biological target: Cyclin-C/Cyclin-dependent kinase 19 (Homo sapiens) (UniProt Q9BWU1+P24863); assay: Selectivity interaction (NanoBRET assay in HEK293T cells) EUB0001631a CDK19; type: cell-based; conditions: HEK-293T, at 10 µM
[3] = biological target: Cyclin-dependent kinase 2/cyclin E1 (Homo sapiens) (UniProt P24864+P24941); assay: Selectivity interaction (NanoBRET assay in HEK293T cells) EUB0001631a CDK2; type: cell-based; conditions: HEK-293T, at 10 µM
[4] = biological target: Cyclin-dependent kinase 13/Cyclin-K (Homo sapiens) (UniProt Q14004+O75909); assay: Selectivity interaction (NanoBRET assay in HEK293T cells) EUB0001631a CDK13; type: cell-based; conditions: HEK-293T, at 10 µM
[5] = biological target: T1, Ephrin type-A receptor 1 (Homo sapiens) (UniProt P21709); assay: Selectivity interaction (KinaseProfilerTM (Merck Millipore) ) EUB0001631a EPHA1; conditions: at 10 µM
T1 sequence (whole entry): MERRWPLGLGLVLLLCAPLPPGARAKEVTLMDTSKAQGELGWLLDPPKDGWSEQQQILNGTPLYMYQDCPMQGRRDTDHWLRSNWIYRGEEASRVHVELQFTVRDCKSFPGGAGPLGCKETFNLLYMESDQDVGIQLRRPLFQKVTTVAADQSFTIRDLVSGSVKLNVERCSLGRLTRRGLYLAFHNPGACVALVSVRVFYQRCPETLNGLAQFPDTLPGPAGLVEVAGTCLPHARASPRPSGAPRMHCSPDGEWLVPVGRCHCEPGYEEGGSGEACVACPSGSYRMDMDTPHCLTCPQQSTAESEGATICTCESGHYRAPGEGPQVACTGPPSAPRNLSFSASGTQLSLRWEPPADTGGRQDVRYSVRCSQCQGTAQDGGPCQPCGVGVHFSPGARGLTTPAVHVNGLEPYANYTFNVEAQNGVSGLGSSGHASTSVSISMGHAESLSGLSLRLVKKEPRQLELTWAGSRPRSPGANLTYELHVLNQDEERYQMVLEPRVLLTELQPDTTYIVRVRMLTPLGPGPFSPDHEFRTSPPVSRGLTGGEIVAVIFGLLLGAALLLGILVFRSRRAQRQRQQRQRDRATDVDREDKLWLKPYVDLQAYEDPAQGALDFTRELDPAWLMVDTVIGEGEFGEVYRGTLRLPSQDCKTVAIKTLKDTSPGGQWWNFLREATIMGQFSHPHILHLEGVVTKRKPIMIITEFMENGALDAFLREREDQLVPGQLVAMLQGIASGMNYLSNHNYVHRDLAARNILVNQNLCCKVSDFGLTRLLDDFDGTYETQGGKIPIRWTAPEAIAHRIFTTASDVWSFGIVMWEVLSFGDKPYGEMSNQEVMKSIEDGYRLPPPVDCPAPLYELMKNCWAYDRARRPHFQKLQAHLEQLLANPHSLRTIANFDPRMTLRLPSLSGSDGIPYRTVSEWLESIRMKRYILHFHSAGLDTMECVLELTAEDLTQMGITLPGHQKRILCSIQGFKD

[6] = biological target: CDK1/Cyclin E (Homo sapiens) (UniProt P06493+P24864+O96020); assay: Selectivity interaction (KinaseProfilerTM (Merck Millipore) ) EUB0001631a CDK1; type: protein-complex assay; conditions: at 10 µM
[7] = biological target: CDK10/Cyclin L2 (Homo sapiens) (UniProt Q15131+Q96S94); assay: Selectivity interaction (NanoBRET assay in HEK293T cells) EUB0001631a CDK10; type: cell-based; conditions: HEK-293T, at 10 µM
[8] = biological target: Cyclin-dependent kinase 2/cyclin E (Homo sapiens) (UniProt P24864+P24941+O96020); assay: Selectivity interaction (KinaseProfilerTM (Merck Millipore) ) EUB0001631a CDK2; type: protein-complex assay; conditions: at 10 µM
[9] = biological target: CDK20/Cyclin H (Homo sapiens) (UniProt P51946+Q8IZL9); assay: Selectivity interaction (NanoBRET assay in HEK293T cells) EUB0001631a CDK20; type: cell-based; conditions: HEK-293T, at 10 µM
[10] = biological target: High affinity nerve growth factor receptor (Homo sapiens, UniProt P04629); assay: Selectivity interaction (KinaseProfilerTM (Merck Millipore) ) EUB0001631a NTRK1; conditions: at 10 µM
Chain of High affinity nerve growth factor receptor (P04629 33-796 limits assumed): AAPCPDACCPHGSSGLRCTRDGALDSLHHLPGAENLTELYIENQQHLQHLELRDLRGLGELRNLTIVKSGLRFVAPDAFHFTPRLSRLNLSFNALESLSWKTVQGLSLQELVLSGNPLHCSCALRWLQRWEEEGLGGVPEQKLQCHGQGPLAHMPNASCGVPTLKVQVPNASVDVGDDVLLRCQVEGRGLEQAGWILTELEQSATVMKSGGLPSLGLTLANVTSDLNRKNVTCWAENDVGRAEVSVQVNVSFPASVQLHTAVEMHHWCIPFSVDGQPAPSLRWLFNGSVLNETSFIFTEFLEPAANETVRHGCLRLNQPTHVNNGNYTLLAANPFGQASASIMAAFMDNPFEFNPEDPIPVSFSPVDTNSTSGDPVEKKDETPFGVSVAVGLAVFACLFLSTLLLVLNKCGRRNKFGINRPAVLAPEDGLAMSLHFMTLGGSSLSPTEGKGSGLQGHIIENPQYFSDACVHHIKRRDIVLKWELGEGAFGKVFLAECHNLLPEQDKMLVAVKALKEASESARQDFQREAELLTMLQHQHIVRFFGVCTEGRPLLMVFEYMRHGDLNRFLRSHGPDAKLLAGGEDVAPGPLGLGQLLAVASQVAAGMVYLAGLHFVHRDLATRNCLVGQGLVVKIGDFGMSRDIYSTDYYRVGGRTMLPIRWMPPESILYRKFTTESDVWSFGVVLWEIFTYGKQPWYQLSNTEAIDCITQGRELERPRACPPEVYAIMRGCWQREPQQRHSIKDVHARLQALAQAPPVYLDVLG

[11] = biological target: Mast/stem cell growth factor receptor Kit (Homo sapiens, UniProt P10721); assay: Selectivity interaction (KinaseProfilerTM (Merck Millipore) ) EUB0001631a KIT; conditions: at 10 µM
Chain of Mast/stem cell growth factor receptor Kit (P10721 whole entry): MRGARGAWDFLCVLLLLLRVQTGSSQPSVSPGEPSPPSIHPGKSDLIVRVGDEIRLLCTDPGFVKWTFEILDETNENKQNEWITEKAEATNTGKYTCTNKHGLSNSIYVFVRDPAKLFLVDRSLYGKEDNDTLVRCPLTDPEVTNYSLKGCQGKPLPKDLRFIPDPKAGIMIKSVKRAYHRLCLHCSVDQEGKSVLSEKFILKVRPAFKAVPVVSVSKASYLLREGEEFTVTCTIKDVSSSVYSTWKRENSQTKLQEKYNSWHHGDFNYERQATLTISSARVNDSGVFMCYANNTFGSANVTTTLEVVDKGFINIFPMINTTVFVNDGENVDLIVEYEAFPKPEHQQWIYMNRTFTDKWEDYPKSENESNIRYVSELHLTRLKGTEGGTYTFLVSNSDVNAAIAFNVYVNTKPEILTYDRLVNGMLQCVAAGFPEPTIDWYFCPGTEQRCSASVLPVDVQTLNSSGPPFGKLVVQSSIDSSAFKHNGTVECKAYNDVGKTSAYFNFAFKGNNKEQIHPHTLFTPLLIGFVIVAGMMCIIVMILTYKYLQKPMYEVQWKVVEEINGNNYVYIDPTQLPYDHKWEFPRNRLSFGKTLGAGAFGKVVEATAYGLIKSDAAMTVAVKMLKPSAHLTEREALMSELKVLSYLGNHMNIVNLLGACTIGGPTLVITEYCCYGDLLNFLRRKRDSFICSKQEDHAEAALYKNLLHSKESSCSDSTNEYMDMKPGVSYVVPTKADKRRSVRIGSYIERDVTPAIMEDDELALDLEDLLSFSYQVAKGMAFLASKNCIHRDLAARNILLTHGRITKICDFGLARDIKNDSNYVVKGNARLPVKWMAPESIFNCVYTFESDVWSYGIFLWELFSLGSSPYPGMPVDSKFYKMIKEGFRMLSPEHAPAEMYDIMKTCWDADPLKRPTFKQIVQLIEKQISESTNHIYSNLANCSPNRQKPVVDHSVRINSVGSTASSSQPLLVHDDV

[12] = biological target: CDK3/Cyclin E (Homo sapiens) (UniProt P24864+Q00526); assay: Selectivity interaction (NanoBRET assay in HEK293T cells) EUB0001631a CDK3; type: cell-based; conditions: HEK-293T, at 10 µM
Chain of CDK3/Cyclin E (Homo sapiens) (P24864 whole entry, looked up): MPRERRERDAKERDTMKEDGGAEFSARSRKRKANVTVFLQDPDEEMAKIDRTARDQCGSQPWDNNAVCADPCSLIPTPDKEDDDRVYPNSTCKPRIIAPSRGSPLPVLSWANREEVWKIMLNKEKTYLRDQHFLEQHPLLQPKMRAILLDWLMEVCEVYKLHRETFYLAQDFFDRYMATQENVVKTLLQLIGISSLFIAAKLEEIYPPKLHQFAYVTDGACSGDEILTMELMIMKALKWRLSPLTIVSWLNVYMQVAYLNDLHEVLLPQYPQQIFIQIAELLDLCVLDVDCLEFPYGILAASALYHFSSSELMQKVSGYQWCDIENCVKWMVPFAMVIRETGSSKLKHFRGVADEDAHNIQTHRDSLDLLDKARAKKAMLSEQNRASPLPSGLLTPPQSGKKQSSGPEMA
Chain of CDK3/Cyclin E (Homo sapiens) (Q00526 whole entry, looked up): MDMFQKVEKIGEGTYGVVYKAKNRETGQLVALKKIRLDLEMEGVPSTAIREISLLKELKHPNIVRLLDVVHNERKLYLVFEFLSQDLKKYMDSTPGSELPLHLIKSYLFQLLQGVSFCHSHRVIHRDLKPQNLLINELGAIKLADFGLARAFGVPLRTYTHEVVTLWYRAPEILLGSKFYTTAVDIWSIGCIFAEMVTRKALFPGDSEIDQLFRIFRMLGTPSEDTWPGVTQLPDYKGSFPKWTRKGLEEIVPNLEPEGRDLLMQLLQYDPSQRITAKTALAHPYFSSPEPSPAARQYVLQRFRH

[13] = biological target: Cyclin-dependent kinase 14/Cyclin-Y (Homo sapiens) (UniProt O94921+Q8ND76); assay: Selectivity interaction (NanoBRET assay in HEK293T cells) EUB0001631a CDK14; type: cell-based; conditions: HEK-293T, at 10 µM
[14] = biological target: CDK9/Cyclin K (Homo sapiens) (UniProt P50750+O75909); assay: Selectivity interaction (NanoBRET assay in HEK293T cells) EUB0001631a CDK9; type: cell-based; conditions: HEK-293T, at 10 µM
[15] = biological target: Cyclin-dependent kinase 7 (Homo sapiens, UniProt P50613); assay: Selectivity interaction (NanoBRET assay in HEK293T cells) EUB0001631a CDK7; type: cell-based; conditions: HEK-293T, at 10 µM
Chain of Cyclin-dependent kinase 7 (P50613 whole entry): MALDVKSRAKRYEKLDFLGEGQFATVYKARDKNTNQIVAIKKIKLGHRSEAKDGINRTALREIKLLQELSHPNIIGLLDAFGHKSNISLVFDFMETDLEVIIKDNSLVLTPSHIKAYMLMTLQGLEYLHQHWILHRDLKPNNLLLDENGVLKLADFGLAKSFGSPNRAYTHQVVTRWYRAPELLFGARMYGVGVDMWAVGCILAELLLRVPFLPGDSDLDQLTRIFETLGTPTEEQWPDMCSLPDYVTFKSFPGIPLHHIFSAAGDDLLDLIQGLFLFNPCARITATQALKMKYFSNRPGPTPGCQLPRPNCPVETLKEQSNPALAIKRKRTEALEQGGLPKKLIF

[16] = biological target: CDK15/Cyclin Y (Homo sapiens) (UniProt Q96Q40+Q8ND76); assay: Selectivity interaction (NanoBRET assay in HEK293T cells) EUB0001631a CDK15; type: cell-based; conditions: HEK-293T, at 10 µM
[17] = biological target: T2, Cyclin-dependent kinase 5/CDK5 activator 1 (Homo sapiens) (UniProt Q00535+Q15078); assay: Selectivity interaction (NanoBRET assay in HEK293T cells) EUB0001631a CDK5; type: cell-based; conditions: HEK-293T, at 10 µM
T2 sequence (Q00535 whole entry): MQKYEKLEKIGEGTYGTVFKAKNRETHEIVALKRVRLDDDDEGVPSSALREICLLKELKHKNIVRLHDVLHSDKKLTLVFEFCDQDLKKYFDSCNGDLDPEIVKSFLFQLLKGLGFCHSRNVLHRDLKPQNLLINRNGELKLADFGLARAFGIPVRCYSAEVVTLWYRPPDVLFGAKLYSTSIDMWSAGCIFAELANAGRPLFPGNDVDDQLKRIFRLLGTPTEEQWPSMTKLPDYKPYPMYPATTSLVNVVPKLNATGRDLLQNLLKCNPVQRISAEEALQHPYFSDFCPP
T2 sequence (Q15078 99-307 partner limits assumed): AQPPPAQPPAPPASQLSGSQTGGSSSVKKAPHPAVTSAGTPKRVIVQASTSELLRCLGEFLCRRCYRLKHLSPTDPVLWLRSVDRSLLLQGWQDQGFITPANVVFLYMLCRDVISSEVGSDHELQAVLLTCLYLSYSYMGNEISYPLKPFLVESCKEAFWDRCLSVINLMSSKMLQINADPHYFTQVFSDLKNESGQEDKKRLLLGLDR

[18] = biological target: CDK11A/Cyclin L2 (Homo sapiens) (UniProt Q9UQ88+Q96S94); assay: Selectivity interaction (NanoBRET assay in HEK293T cells) EUB0001631a CDK11A; type: cell-based; conditions: HEK-293T, at 10 µM
[19] = biological target: Vascular endothelial growth factor receptor 3 (Homo sapiens, UniProt P35916); assay: Selectivity interaction (KinaseProfilerTM (Merck Millipore) ) EUB0001631a FLT4; conditions: at 10 µM
[20] = biological target: CDK17/Cyclin-Y (Homo sapiens) (UniProt Q00537+Q8ND76); assay: Selectivity interaction (NanoBRET assay in HEK293T cells) EUB0001631a CDK17; type: cell-based; conditions: HEK-293T, at 10 µM
[21] = biological target: Glycogen synthase kinase-3 beta (Homo sapiens, UniProt P49841); assay: Selectivity interaction (KinaseProfilerTM (Merck Millipore) ) EUB0001631a GSK3B; conditions: at 10 µM
Chain of Glycogen synthase kinase-3 beta (P49841 whole entry, looked up): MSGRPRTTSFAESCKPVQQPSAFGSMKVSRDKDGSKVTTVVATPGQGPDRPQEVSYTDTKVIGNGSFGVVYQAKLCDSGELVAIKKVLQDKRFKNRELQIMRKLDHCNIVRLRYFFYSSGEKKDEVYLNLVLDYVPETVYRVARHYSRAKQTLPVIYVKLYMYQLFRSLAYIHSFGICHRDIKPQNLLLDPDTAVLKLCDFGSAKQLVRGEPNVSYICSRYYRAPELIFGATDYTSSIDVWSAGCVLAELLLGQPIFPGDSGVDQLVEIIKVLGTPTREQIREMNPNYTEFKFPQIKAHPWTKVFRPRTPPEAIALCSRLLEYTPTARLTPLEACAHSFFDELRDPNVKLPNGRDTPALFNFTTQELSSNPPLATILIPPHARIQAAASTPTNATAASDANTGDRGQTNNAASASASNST

[22] = biological target: CDK11B/Cyclin L2 (Homo sapiens) (UniProt P21127+Q96S94); assay: Selectivity interaction (NanoBRET assay in HEK293T cells) EUB0001631a CDK11B; type: cell-based; conditions: HEK-293T, at 10 µM
[23] = biological target: CDK1/Cyclin E (Homo sapiens) (UniProt P06493+P24864); assay: Selectivity interaction (NanoBRET assay in HEK293T cells) EUB0001631a CDK1; type: cell-based; conditions: HEK-293T, at 10 µM
Chain of CDK1/Cyclin E (Homo sapiens) (UniProt P06493+P24864) (P06493 whole entry, looked up): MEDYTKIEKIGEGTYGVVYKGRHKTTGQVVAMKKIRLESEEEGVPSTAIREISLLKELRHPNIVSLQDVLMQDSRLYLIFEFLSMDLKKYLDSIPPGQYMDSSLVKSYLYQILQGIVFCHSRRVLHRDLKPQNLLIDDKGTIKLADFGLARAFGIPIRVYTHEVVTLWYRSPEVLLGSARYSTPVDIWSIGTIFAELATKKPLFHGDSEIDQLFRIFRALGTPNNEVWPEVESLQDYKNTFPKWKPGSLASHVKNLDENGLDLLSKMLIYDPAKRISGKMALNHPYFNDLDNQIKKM
Chain of CDK1/Cyclin E (Homo sapiens) (UniProt P06493+P24864) (P24864 whole entry, looked up): as the sequence (P24864 whole entry, looked up) above

[24] = biological target: CDK12/Cyclin K (Homo sapiens) (UniProt O75909+Q9NYV4); assay: Selectivity interaction (NanoBRET assay in HEK293T cells) EUB0001631a CDK12; type: cell-based; conditions: HEK-293T, at 10 µM
[25] = biological target: Tyrosine-protein kinase Fyn (Homo sapiens) (UniProt P06241); assay: Selectivity interaction (KinaseProfilerTM (Merck Millipore) ) EUB0001631a FYN; conditions: at 10 µM
Chain of Tyrosine-protein kinase Fyn (Homo sapiens) (P06241 2-537 limits assumed): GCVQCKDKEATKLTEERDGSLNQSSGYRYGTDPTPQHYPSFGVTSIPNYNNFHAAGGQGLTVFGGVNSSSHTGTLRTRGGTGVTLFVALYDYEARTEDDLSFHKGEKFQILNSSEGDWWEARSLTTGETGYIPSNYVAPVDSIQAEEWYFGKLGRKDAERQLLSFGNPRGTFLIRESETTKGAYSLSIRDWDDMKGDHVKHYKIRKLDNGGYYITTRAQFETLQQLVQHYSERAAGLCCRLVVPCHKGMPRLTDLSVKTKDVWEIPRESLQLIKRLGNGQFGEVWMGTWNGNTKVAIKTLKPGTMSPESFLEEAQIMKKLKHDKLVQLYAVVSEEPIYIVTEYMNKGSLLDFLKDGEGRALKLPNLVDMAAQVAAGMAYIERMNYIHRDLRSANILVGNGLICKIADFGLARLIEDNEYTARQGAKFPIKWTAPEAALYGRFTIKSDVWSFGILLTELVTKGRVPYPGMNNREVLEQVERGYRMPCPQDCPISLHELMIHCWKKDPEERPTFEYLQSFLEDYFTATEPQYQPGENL

[26] = biological target: CDK3/cyclin E (Homo sapiens) (UniProt P24864+O96020+Q00526); assay: Selectivity interaction (KinaseProfilerTM (Merck Millipore) ) EUB0001631a CDK3; type: protein-complex assay; conditions: at 10 µM
[27] = biological target: T2, Cyclin-dependent kinase 5/CDK5 activator 1 (Homo sapiens); assay: Selectivity interaction (KinaseProfilerTM (Merck Millipore) ) EUB0001631a CDK5; type: protein-complex assay; conditions: at 10 µM
[28] = biological target: CDK18/Cyclin Y (Homo sapiens) (UniProt Q07002+Q8ND76); assay: Selectivity interaction (NanoBRET assay in HEK293T cells) EUB0001631a CDK18; type: cell-based; conditions: HEK-293T, at 10 µM
[29] = biological target: Cyclin-Y/Cyclin-dependent kinase 16 (Homo sapiens) (UniProt Q00536+Q8ND76); assay: Selectivity interaction (NanoBRET assay in HEK293T cells) EUB0001631a CDK16; type: cell-based; conditions: HEK-293T, at 10 µM
[30] = biological target: CDK6/cyclin D1 (Homo sapiens) (UniProt P24385+Q00534); assay: Selectivity interaction (NanoBRET assay in HEK293T cells) EUB0001631a CDK6; type: cell-based; conditions: HEK-293T, at 10 µM
[31] = biological target: Cyclin-dependent kinase 4/cyclin D1 (Homo sapiens) (UniProt P11802+P24385); assay: Selectivity interaction (NanoBRET assay in HEK293T cells) EUB0001631a CDK4; type: cell-based; conditions: HEK-293T, at 10 µM
[32] = biological target: Glycogen synthase kinase-3 alpha (Homo sapiens, UniProt P49840); assay: Selectivity interaction (KinaseProfilerTM (Merck Millipore) ) EUB0001631a GSK3A; conditions: at 10 µM
[33] = biological target: Microtubule-associated serine/threonine-protein kinase 1 (Homo sapiens) (UniProt Q9Y2H9); assay: Selectivity interaction (KinomeScan (DiscoverX)) EUB0001877a MAST1; conditions: at 1 µM

% of inhibition [1]: 3%
% of inhibition [2]: 11.1%
% of inhibition [3]: 41.7%
% of inhibition [4]: 4.8%
% of control [5]: 20%
% of control [6]: 14%
% of inhibition [7]: 6.3%
% of control [8]: 13%
% of inhibition [9]: 1.3%
% of control [10]: 20%
% of control [11]: 6%
% of inhibition [12]: 48.4%
% of inhibition [13]: 3%
% of inhibition [14]: 97.9%
% of inhibition [15]: 16.8%
% of inhibition [16]: 4.5%
% of inhibition [17]: 26.1%
% of inhibition [18]: 10%
% of control [19]: 30%
% of inhibition [20]: 31%
% of control [21]: 3%
% of inhibition [22]: 7.4%
% of inhibition [23]: 16.6%
% of inhibition [24]: 8.2%
% of control [25]: 24%
% of control [26]: 10%
% of control [27]: 20%
% of inhibition [28]: 19.9%
% of inhibition [29]: 38.6%
% of inhibition [30]: 64.1%
% of inhibition [31]: 31.5%
% of control [32]: 4%
SMILES: COc1cc(F)ccc1-c1ncnc(Nc2cccc(C[S@](C)(=N)=O)c2)n1

% of control [33]: 32%
SMILES: Nc1ncc2c(n1)-c1c([nH]c3ccc(C4CC4)cc13)CCCC2
